Test results published in patent publication US20240269170A1, “Treatment of Inflammatory Conditions or Diseases” (Queen Mary University of London, priority 2021, published 2024).

System: G6PI peptide induced arthritis in DBA/1 mice
Assay: G6PI peptide induced arthritis, MCTR3 treatment
Type: in vivo, mouse
Description: (A-D) K/B×N serum (100 μL via intraperitoneal injection, i.p.) was administered to C57BL/6 mice on days 0, 2 and 8 to initiate and prolong inflammatory arthritis. Mice were treated 1 μg/mouse MCTR3 or vehicle (PBS+0.1% EtOH) on day 10, 12 and 14 via intravenous (i.v.) injection. Disease course was assessed by evaluating A) clinical scores and B) paw oedema daily. Results are mean±SEM, n=9 mice per group. Statistical differences were evaluated using a Two-Way ANOVA. Arrows denote days when MCTR3 was administered. (C,D) paws were harvested on day 25, and cells liberated from the joints and the expression of phenotypic markers was evaluated on joint macrophages using flow cytometry and PLS-DA. (C) scores plot with highlighted regions denoting the clusters representing cells from each group and (D) VIP scores for each of the markers evaluated. Each dot in the score plot represents a separate mouse. (E-H) Arthritis was induced in DBA/1 mice by administration of 10 μg G6PI in CFA on Day 0. On day 24, 26 and 28 (denoted in blue arrows), mice were administered 1 μg/mouse MCTR3 or vehicle (PBS+0.1% EtOH) i.v. and (E) clinical scores and (F) paw oedema were measured. Results are mean±SEM, n=mice 7 per group from 2 separate experiments. Statistical differences were evaluated using a Two-Way ANOVA. (G-H) paws were harvested on day 36, and cells liberated from the joints and the expression of phenotypic markers was evaluated on joint macrophages using flow cytometry and PLS-DA. (G) scores plot with highlighted regions denoting the clusters representing cells from each group and (H) VIP scores for each of the markers evaluated. Each dot in the score plot represents a separate mouse.
FIG. 10: MCTR3 promotes bone and cartilage repair in arthritic mice. G6PI peptide (10 μg/mouse) in CFA was administered to DBA/1 mice ([…]) and mice were treated with either vehicle (PBS+0.1% EtOH) or 1 μg/mouse MCTR3 i.v. on day 24, 26 and 28. On day 36, hind paws were harvested for histological analysis. A) Representative images from knee joints from a vehicle and MCTR3 treated mouse stained with Safranin-O and B) quantitative analysis of Safranin O staining. Results are mean±SEM n=5 mice per group. C-D) microCT analysis was performed in vivo on day 24 and 35, to evaluate bone erosion in the arthritic knees. […] Results are mean±SEM and expressed as percent change from values obtained on day 24 for each mouse. n=4 mice per group. Statistical differences were evaluated using a Mann-Whitney U test.
We next assessed whether the protective activities of MCTR3 were retained in a model of adaptive immune system driven arthritis, using the glucose-6-phosphate isomerase peptide driven model of inflammatory arthritis (Schubert et al., 2004, J Immunol 172, 4503-4509). Here, administration of MCTR3 during the course of arthritic inflammation also led to a reduction in joint inflammation as measured by a reduction in both clinical scores and joint oedema (FIG. 1E,F). […] This shift in phenotype was linked with an upregulation of three phenotypic markers, including Arg-1 and CD11b, in cells obtained from joints of MCTR3 treated mice (FIG. 1H).
Since one of the main debilitating features of arthritis is bone erosion, we next determined whether the joint protective actions of MCTR3 also extended to the bone. For this purpose, we used microCT analysis to investigate bone volume in arthritic joints, comparing bone volumes on day 24, prior to MCTR3 treatment, to those at day 35. […] We next queried whether these bone protective activities of
G6PI peptide induced arthritis: Antigen DBA/1 mice were immunised with a G6PI emulsion (120 μL/mouse), prepared by sonication of 10 μg G6PI peptide (Sequence: IWYINCFGCETHAML; Cambridge Peptides Ltd.) in 50 μL complete Freund's adjuvant (CFA) and 50 μL DPBS^−/− per mouse (Schubert et al., 2004, J Immunol 172, 4503-4509), via intradermal injection at the base of the tail to initiate inflammatory arthritis. […]

[1] = 1 μg/mouse i.v. on day 24, 26 and 28
[2] = 1 μg/mouse i.v., day 36, flow cytometry

CC/C=C\C/C=C\C[C@H](O)[C@@H](/C=C/C=C/C=C\C/C=C\CCC(=O)O)SC[C@H](N)C(=O)O [MCTR3, 13R-cysteinyl, 14S-hydroxy-4Z, 7Z, 9E, 11E, 13R, 14S, 16Z, 19Z-docosahexaenoic acid]
clinical scores [1]: reduction | joint oedema [1]: reduction | safranin O-staining in joints (glycosaminoglycan content) (1 μg/mouse i.v. on day 24, 26 and 28, day 36): significantly higher | bone volume in arthritic knees (microCT) (1 μg/mouse i.v., day 35 compared with day 24): increased | Arg-1 in joint macrophages [2]: upregulation | CD11b in joint macrophages [2]: upregulation
